Values quoted from earlier work, collected in article PMC4435776 (Journal of cardiovascular translational research, 2014).

System: Mouse ESC
Details: compared with the effect of CsA; ref [56]

Compound	effect on stem cells of other calcineurin/NFAT inhibitors
11R-VIVIT	absence of a significant effect
C=CC[C@@H]1/C=C(\C)C[C@H](C)C[C@H](OC)[C@H]2O[C@@](O)(C(=O)C(=O)N3CCCC[C@H]3C(=O)O[C@H](/C(C)=C/[C@@H]3CC[C@@H](O)[C@H](OC)C3)[C@H](C)[C@@H](O)CC1=O)[C@H](C)C[C@@H]2OC [tacrolimus]	absence of a significant effect
